Legend:
Type in all cases: cell-based, human
WM-164 cells = assay: Anchorage independence in soft agar, WM-164; settings: DMAT 10 μM, one week
[1] = test system: platelets from MEG-01 cells; assay: Function assays of platelets released from treated MEG-01 cells
Experimental: Platelets isolation from culture. Platelets were separated from the megakaryocytic cells, by differential centrifugation and analyzed separately. Suspension cells were centrifuged first at 100 g-150 g for 15 minutes, and then the platelets rich supernatant was kept and centrifuged again at 800 g for 15 minutes. For impeding artefactual aggregation of platelets in the control, EDTA and RGD or RGDS were added in the cell suspension from the beginning of the centrifugations, and with each centrifugation step. 1 mg/ml RGD or RGDS and 10 mM EDTA final concentrations, were used for negative control (inactivated) or resting platelets. Platelets were activated with different agonists: 100 nM PMA, 1 μg/ml TRAP and 0.5 U/ml human a-thrombin. For most of assays TRAP 1 μg/ml was used. For scanning electron microscopy experiment (formation of the fibrin clot) human a-thrombin was used. For both sample sets, activated (with TRAP) and inactivated (EDTA, RGD), platelets collected from MEG-01 cultures incubated with 10 μM DMAT for 4 days were utilized.
PAC-I-FITC binding due to platelet activation flow cytometric assay. Monoclonal antibody PAC-1 recognizes an epitope on the glycoprotein αIIbβ3 of activated platelets. […]
Fibrinogen-Alexa Fluor 488 binding to platelets flow cytometric assay. […] Final concentration of fibrinogen conjugated to Alexa Fluor 488 was determined spectrophotometrically. […]

SW-480 cells = assay: Annexin V apoptosis/necrosis assay, SW-480
Experimental: Apoptosis Assays using Flow Cytometry with Annexin V-FITC and propidium iodide (PI). For induction of typical apoptosis, cells were grown in the presence of 1 μM staurosporine (Sigma-Aldrich) for 6 hours. The staurosporine treated cells were stained as follows: control 1 with PI, control 2 with Annexin V-FITC and control 3 both PI and Annexin V-FITC in order to have the brightest controls for compensation and proper collection of the flow cytometry data. Cell necrosis was induced by heat shock (65° C. for 30 minutes). The stained control, both PI and Annexin V-FITC labeled, was then used as the reference in establishing the level of apoptosis induced by the treatments. Data was collected on logarithmic modes, two-colors. Annexin V-FITC corresponds to FL1 H channel, and PI to FL3H or FL2H channels.
Annexin V-FITC and PI apoptosis assay staining protocol. Apoptosis Annexin V-FITC and PI kit from BD Biosciences, CA, USA, was used. 10^5-10^6 cells were stained with 50 μg/ml PI and with 0.5 μg/ml FITC-labeled Annexin V using the staining protocol provided by the supplier. Samples were then analyzed immediately by flow cytometry.

Q: What does the source list for `CN(C)c1nc2c(Br)c(Br)c(Br)c(Br)c2[nH]1` [DMAT, 2-dimethylamino-4,5,6,7-tetrabromo-1H-benzimidazole]?
A: colonies in soft agar (WM-164 cells): much smaller and fewer colonies; fibrin clot formation by platelets from treated MEG-01 cells ([1]; DMAT 10 μM at 72 hours, human thrombin 0.5 U/ml): form a fibrin clot; function of platelets obtained from treated MEG-01 cells ([1]; response to human thrombin 0.5 U/ml): functional; level of apoptotic cells (SW-480 cells; 10 μM DMAT, 24 hours, control 1.9%): 17.5%; level of necrotic cells (SW-480 cells; 10 μM DMAT, 24 hours, control 3.5%): 1.9%; level of apoptotic cells (SW-480 cells; 20 μM DMAT): 27.6%; level of necrotic cells (SW-480 cells; 20 μM DMAT): 2.4%
